pIC50: −log10 of the molar value. ≈ marks a conversion by molar mass, not a printed value. Like-named read-outs stand apart in the source and are kept apart here.
What was measured:
[1] = tested on: Escherichia coli MC4100 harboring the IMP4213 (E. coli IMP); assay: microbe, parasite or virus in culture; type: cell-based; conditions: Escherichia coli, 22 h, read-out: MIC (μg/mL) E. coli IMP, E. coli MC4100 IMP4213, increased outer-membrane permeability; 35° C., 22 hours
Procedure, shortened: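 Ten 2-fold dilutions, from 4 μg/mL or from 0.5 μg/mL depending on protocol, are challenged with bacteria at OD600 0.0005 in Tween-80-supplemented cation-adjusted Mueller Hinton Broth. Plates incubate 22 hours at 35° C per CLSI. The E. coli IMP4213 strain has increased outer-membrane permeability.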

[2] = tested on: Escherichia coli ATCC 25922; assay: Minimum inhibitory concentration, broth micro-dilution (CLSI), E. coli; type: cell-based; conditions: Escherichia coli, ATCC25922, 22 h, 35° C., 22 hours
[3] = target: T1, SpsB (Staphylococcus aureus signal peptidase) (Staphylococcus aureus, UniProt P0A070); assay: cell-based; type: biochemical; conditions: SpsB IC50, whole-cell S. aureus (USA300 background, overexpressing SpsB) as SpsB source; fluorogenic peptide substrate, kinetic read 30 min
T1 construct: This assay uses a suspension of Staphylococcus aureus cells as a source of SpsB instead of recombinant SpsB protein; endogenous in cells; host or cells: S. aureus, USA300 background, overexpressing SpsB (whole-cell suspension from frozen pellets)
Protocol: A kinetic fluorogenic enzyme activity assay was used to assess inhibition of SpsB (Staphylococcus aureus signal peptidase) activity and IC50s were determined. This assay uses a suspension of Staphylococcus aureus cells as a source of SpsB instead of recombinant SpsB protein.
Cell preparation: Luria broth (LB) was inoculated with S. aureus (USA300 background, overexpressing SpsB) and shaken at 37° C. until an OD600 nm of 1.5-2.0 was reached (˜4 hr). The culture was then diluted to an OD600 nm of 1.0 with LB, aliquoted and centrifuged at 10,000×g for 2 mins. The supernatant was removed and the pellet was resuspended in phosphate buffer (1×PBS, 12.5 mg/L MgCl2, 25 mg/L CaCl2, 0.1% Tween-80) to an OD600 nm of 0.5, then centrifuged again at 10,000x g for 2 mins. The supernatant was removed and the pellets were frozen at −20° C.
Test compounds were prepared in DMSO at a concentration of 10 mg/mL. These compound stocks were diluted into DMSO to a concentration of 25 μg/mL and serial 3-fold dilutions were made in DMSO, for a total of 11 compound concentrations. 20 nL of each compound solution was pre-spotted into a white 384-well plate (50 μL/well polypropylene, Nunc) using acoustic fluid transfer (Echo).
Frozen S. aureus pellets were resuspended in assay buffer (1x PBS, 12.5 mg/L MgCl2, 25 mg/L CaCl2, 0.1% Tween-80) to an OD600 nm of 0.05, then mixed 1:1 (v/v) with 20 μM substrate ((Dabcyl)βAla-KPAKAAE(Edans)) in assay buffer, and this solution was added (20 μL/well) to the 384-well plate that had been pre-spotted with compound. Fluorescence intensity was then immediately read kinetically for 30 minutes with 2 minute read intervals to monitor cleavage of the internally quenched peptide substrate (excitation wavelength=340 nm, emission wavelength=490 nm, Molecular Devices Spectramax M5). Reaction rate (slope) was plotted against inhibitor concentration to derive the IC50.

[4] = tested on: Methicillin Resistant Staphylococcus aureus strain USA 300, NRS384; assay: Minimum inhibitory concentration, broth micro-dilution (CLSI), S. aureus; type: cell-based; conditions: Staphylococcus aureus, MRSA / NRS 384 / USA300, 22 h, 35° C., 22 hours
Procedure, shortened: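 Colonies grown 20 hours at 35° C were suspended in cation-adjusted Mueller Hinton Broth with 0.002% Tween-80. Cells were then added to 2-fold compound dilutions starting at 4 or 0.5 μg/mL, at OD600 0.0005.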

[5] = E. coli ATCC 25922, read-out: MIC (μg/mL) E. coli
[6] = MRSA USA 300 NRS384, read-out: MIC (μg/mL) S. aureus
[7] = read-out: MIC (μg/mL) E. coli, E. coli ATCC 25922
[8] = read-out: MIC (μg/mL) S. aureus, MRSA USA 300 NRS384

T1 sequence (P0A070 whole entry): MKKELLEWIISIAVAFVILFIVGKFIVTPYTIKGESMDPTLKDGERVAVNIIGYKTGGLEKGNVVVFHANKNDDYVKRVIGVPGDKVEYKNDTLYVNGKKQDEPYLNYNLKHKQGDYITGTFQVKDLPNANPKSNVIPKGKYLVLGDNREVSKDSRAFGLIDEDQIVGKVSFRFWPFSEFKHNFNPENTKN

| Structure (SMILES) | MIC [1] [µg/mL] | MIC [2, 5] [µg/mL] | pIC50 [3] | MIC [4, 6] [µg/mL] | MIC [2, 7] [µg/mL] | MIC [4, 8] [µg/mL] |
| --- | --- | --- | --- | --- | --- | --- |
| Cc1cc(CCC2CCCCC2)ccc1C(=O)N[C@@H](CCN)C(=O)N(C)[C@@H]1C(=O)N[C@@H](C)C(=O)N[C@H](C(=O)NCC#N)Cc2ccc(OCCN)c(c2)-c2cc1ccc2OCCN [Compound 204] | 0.0078 (≈ 0.00901 µM) | 0.19 (≈ 0.219 µM) | 8.92 | 0.031 (≈ 0.0358 µM) | – | – |
| CCCCCCCCCCCC(=O)N[C@@H](CCC(=O)O)C(=O)N(C)[C@@H]1C(=O)N[C@@H](C)C(=O)N[C@H](C(=O)NCC#N)Cc2ccc(OCCN)c(c2)-c2cc1ccc2OCCN [Compound 253] | 2 (≈ 2.36 µM) | > 64 | 7.92 | 2 (≈ 2.36 µM) | – | – |
| CCCCCCCCCCCC(=O)N[C@@H](CO)C(=O)N[C@@H](CCN)C(=O)N(C)[C@@H]1C(=O)N[C@@H](C)C(=O)N[C@H](C(=O)NCC#N)Cc2ccc(OCCN)c(c2)-c2cc1ccc2OCCN [Compound 384] | 0.031 (≈ 0.0342 µM) | – | 8.92 | – | 3 (≈ 3.31 µM) | 0.012 (≈ 0.0132 µM) |
| Cc1cc(C#CC(C)C)ccc1C(=O)N[C@@H](CCN)C(=O)N(C)[C@@H]1C(=O)N[C@@H](C)C(=O)N[C@H](C(=O)NCC#N)Cc2ccc(OCCN)c(c2)-c2cc1ccc2OCCN [Compound 309] | 0.02 (≈ 0.0243 µM) | 1.1 (≈ 1.34 µM) | 9.00 | 0.19 (≈ 0.231 µM) | – | – |
| CCCCCCCC(F)(F)c1ccc(C(=O)N[C@@H](CCN)C(=O)N(C)[C@@H]2C(=O)N[C@@H](C)C(=O)N[C@H](C(=O)NCC#N)Cc3ccc(OCCN)c(c3)-c3cc2ccc3OCCN)c(Cl)c1 [Compound 412] | 0.012 (≈ 0.013 µM) | – | 9.22 | – | 0.13 (≈ 0.141 µM) | 0.031 (≈ 0.0335 µM) |
| CCCCCCCCCCCC(=O)N[C@@H](CCC(N)=O)C(=O)N(C)[C@@H]1C(=O)N[C@@H](C)C(=O)N[C@H](C(=O)NCC#N)Cc2ccc(OCCN)c(c2)-c2cc1ccc2OCCN [Compound 244] | 0.19 (≈ 0.224 µM) | 48 (≈ 56.6 µM) | 9.00 | 0.13 (≈ 0.153 µM) | – | – |
| Cc1cc(-c2ccc(Cl)cc2)ccc1C(=O)N[C@@H](CCN)C(=O)N(C)[C@@H]1C(=O)N[C@@H](C)C(=O)N[C@H](C(=O)NCC#N)Cc2ccc(OCCN)c(c2)-c2cc1ccc2OCCN [Compound 148] | 0.0098 (≈ 0.0113 µM) | 0.88 (≈ 1.02 µM) | 9.12 | 0.055 (≈ 0.0635 µM) | – | – |
| Cc1nc(Oc2ccc(C(C)(C)C)cc2)ncc1C(=O)N[C@@H](CCN)C(=O)N(C)[C@@H]1C(=O)N[C@@H](C)C(=O)N[C@H](C(=O)NCC#N)Cc2ccc(OCCN)c(c2)-c2cc1ccc2OCCN [Compound 305] | 0.016 (≈ 0.0177 µM) | 1 (≈ 1.1 µM) | 9.14 | 0.063 (≈ 0.0695 µM) | – | – |
| CCc1ccc(-c2ccc(C(=O)N[C@@H](CCN)C(=O)N(C)[C@@H]3C(=O)N[C@@H](C)C(=O)N[C@H](C(=O)NCC#N)Cc4ccc(OCCN)c(c4)-c4cc3ccc4OCCN)c(C)c2)cc1 [Compound 151] | 0.012 (≈ 0.014 µM) | 0.31 (≈ 0.36 µM) | 9.23 | 0.031 (≈ 0.036 µM) | – | – |
| C[C@@H]1NC(=O)[C@@H](N(C)C(=O)[C@H](CCN)NC(=O)c2ccc(-c3ccc4c(c3)CCCC4)cc2)c2ccc(OCCN)c(c2)-c2cc(ccc2OCCN)C[C@@H](C(=O)NCC#N)NC1=O [Compound 138] | 0.055 (≈ 0.0631 µM) | – | 9.03 | – | 0.25 (≈ 0.287 µM) | 0.063 (≈ 0.0722 µM) |
| CCCCCCCCCCCCCC(=O)N[C@@H](CN)C(=O)N(C)[C@@H]1C(=O)N[C@@H](C)C(=O)N[C@H](C(=O)NCC#N)Cc2ccc(OCCN)c(c2)-c2cc1ccc2OCCN [Compound 343] | 0.063 (≈ 0.0755 µM) | 0.25 (≈ 0.3 µM) | 9.14 | 0.094 (≈ 0.113 µM) | – | – |
| Cc1cc(-c2ccc(CC(C)C)cc2)ccc1C(=O)N[C@@H](CCN)C(=O)N(C)[C@@H]1C(=O)N[C@@H](C)C(=O)N[C@H](C(=O)NCC#N)Cc2ccc(OCCN)c(c2)-c2cc1ccc2OCCN [Compound 146] | 0.0078 (≈ 0.00878 µM) | < 0.063 | 9.05 | 0.047 (≈ 0.0529 µM) | – | – |
| CCCCCCCCc1ccc(C(=O)N[C@@H](CCN)C(=O)N(C)[C@@H]2C(=O)N[C@@H](C)C(=O)N[C@H](C(=O)NCC#N)Cc3ccc(OCCN)c(c3)-c3cc2ccc3OCCN)c(Cl)c1 [Compound 210] | 0.029 (≈ 0.0326 µM) | 0.11 (≈ 0.124 µM) | 9.10 | 0.094 (≈ 0.106 µM) | – | – |
| Cc1cc(-c2cnc(CC(C)C)nc2)ccc1C(=O)N[C@@H](CCN)C(=O)N(C)[C@@H]1C(=O)N[C@@H](C)C(=O)N[C@H](C(=O)NCC#N)Cc2ccc(OCCN)c(c2)-c2cc1ccc2OCCN [Compound 179] | 0.0078 (≈ 0.00876 µM) | 0.19 (≈ 0.213 µM) | 8.74 | 0.047 (≈ 0.0528 µM) | – | – |
| C[C@@H]1NC(=O)[C@@H](N(C)C(=O)[C@H](CCN)NC(=O)c2ccc(C#CC3CCCCC3)cc2C(F)F)c2ccc(OCCN)c(c2)-c2cc(ccc2OCCN)C[C@@H](C(=O)NCC#N)NC1=O [Compound 311] | 0.012 (≈ 0.0134 µM) | – | 9.19 | – | 0.25 (≈ 0.278 µM) | 0.047 (≈ 0.0523 µM) |
| C[C@@H]1NC(=O)[C@@H](N(C)C(=O)[C@H](CCCCN)NC(=O)c2ccc(-c3ccc(-c4ccccc4)cc3)cc2)c2ccc(OCCN)c(c2)-c2cc(ccc2OCCN)C[C@@H](C(=O)NCC#N)NC1=O [Compound 118] | 0.031 (≈ 0.0336 µM) | – | 8.85 | – | 0.75 (≈ 0.813 µM) | 0.063 (≈ 0.0683 µM) |
| Cc1cc(/C=C/c2ccccc2)ccc1C(=O)N[C@@H](CCN)C(=O)N(C)[C@@H]1C(=O)N[C@@H](C)C(=O)N[C@H](C(=O)NCC#N)Cc2ccc(OCCN)c(c2)-c2cc1ccc2OCCN [Compound 429] | 0.0078 (≈ 0.00909 µM) | 0.75 (≈ 0.874 µM) | 9.09 | 0.063 (≈ 0.0734 µM) | – | – |
| C[C@@H]1NC(=O)[C@@H](N(C)C(=O)[C@H](CCN)NC(=O)c2ccc(-c3ccc(Cl)cc3)cc2)c2ccc(OCCN)c(c2)-c2cc(ccc2OCCN)C[C@@H](C(=O)NCC#N)NC1=O [Compound 147] | 0.023 (≈ 0.027 µM) | – | 9.16 | – | 1.5 (≈ 1.76 µM) | 0.094 (≈ 0.11 µM) |
| C[C@@H]1NC(=O)[C@@H](N(C)C(=O)[C@H](CCCCN)NC(=O)c2cccc(-c3ccc(Cl)cc3)c2)c2ccc(OCCN)c(c2)-c2cc(ccc2OCCN)C[C@@H](C(=O)NCC#N)NC1=O [Compound 113] | 0.13 (≈ 0.148 µM) | – | 9.29 | – | 32 (≈ 36.3 µM) | 0.19 (≈ 0.216 µM) |
| CCCCCCCc1cc(F)c(C(=O)N[C@@H](CCN)C(=O)N(C)[C@@H]2C(=O)N[C@@H](C)C(=O)N[C@H](C(=O)NCC#N)Cc3ccc(OCCN)c(c3)-c3cc2ccc3OCCN)c(F)c1 [Compound 190] | 0.02 (≈ 0.0228 µM) | 0.31 (≈ 0.354 µM) | 9.15 | 0.063 (≈ 0.0719 µM) | – | – |
| CCCCCCCCc1ccc(C(=O)N(C)[C@@H]2C(=O)N[C@@H](C)C(=O)N[C@H](C(=O)NCC#N)Cc3ccc(OCCN)c(c3)-c3cc2ccc3OCCN)cc1 [Compound 476] | 8 (≈ 10.6 µM) | 32 (≈ 42.4 µM) | 7.07 | 2 (≈ 2.65 µM) | – | – |
| CCCCCCCOc1cc(F)c(C(=O)N[C@@H](CCN)C(=O)N(C)[C@@H]2C(=O)N[C@@H](C)C(=O)N[C@H](C(=O)NCC#N)Cc3ccc(OCCN)c(c3)-c3cc2ccc3OCCN)c(Cl)c1 [Compound 291] | 0.0078 (≈ 0.00859 µM) | 0.19 (≈ 0.209 µM) | 8.89 | 0.063 (≈ 0.0693 µM) | – | – |
| CCCCCCCCCC(=O)N[C@@H](C)C(=O)N[C@@H](CCN)C(=O)N(C)[C@@H]1C(=O)N[C@@H](C)C(=O)N[C@H](C(=O)NCC#N)Cc2ccc(OCCN)c(c2)-c2cc1ccc2OCCN [Compound 373] | 0.063 (≈ 0.073 µM) | – | 9.06 | – | 4 (≈ 4.63 µM) | 0.19 (≈ 0.22 µM) |
| Cc1cc(-c2ccc(CC(C)C)cc2)ccc1C(=O)N[C@@H](CCO)C(=O)N(C)[C@@H]1C(=O)N[C@@H](C)C(=O)N[C@H](C(=O)NCC#N)Cc2ccc(OCCN)c(c2)-c2cc1ccc2OCCN [Compound 261] | 0.047 (≈ 0.0529 µM) | 0.5 (≈ 0.562 µM) | 8.34 | 0.13 (≈ 0.146 µM) | – | – |
